pKi: −log10 of the molar value.
Experiments:
[1] = Binding affinity against Opioid receptor delta 1 was measured in the guinea pig brain membranes using [3H]DADLE in the presence of 1 uM unlabeled DAMGO as radioligand
[2] = as above; remark: listed apart in the source

Row | Structure (SMILES) | pKi [1] | pKi [2]
1 | Oc1ccc2c3c1O[C@H]1C4=C(C[C@@]5(O)C(C2)N(CC2CC2)CC[C@]315)C(c1ccccc1)C1=C(O4)[C@@H]2Oc3c(O)ccc4c3[C@@]23CCN(CC2CC2)C(C4)[C@]3(O)C1 (some centres not stated) [bis(4-cyclopropylmethyl-12-oxa-4-azapentacyclo[9.6.1.01,13.05,17.07,18]octadeca-7(18),8,10,14-tetraene-10,17-diol)4-phenyl-4H-pyran] | 8.00 | 
2 | Oc1ccc2c3c1O[C@H]1c4sc5c(c4C[C@@]4(O)C(C2)N(CC2CC2)CC[C@]314)C[C@@]1(O)C2Cc3ccc(O)c4c3[C@@]1(CCN2CC1CC1)[C@H]5O4 [bis(4-cyclopropylmethyl-12-oxa-4-azapentacyclo[9.6.1.01,13.05,17.07,18]octadeca-7(18),8,10,14-tetraene-10,17-diol)thiphene] |  | 7.11
